Laboratory results reported in BindingDB's records for doi:10.1016/j.bmc.2023.117534 (Zunyi Medical University, 2023).

Legend:
[1] = Inhibition of wild type EGFR in mouse BaF3 cells assessed as cell growth inhibition measured after 72 hrs by CellTiter-Glo assay
[2] = Inhibition of EGFR L858R/T790M/C797S triple mutant in human NCI-H1975 cells assessed as cell growth inhibition measured after 72 hrs by CellTiter-Glo assay

Row | IC50 [1] | IC50 [2] | SMILES
1 | > 10 µM | – | O=C(Nc1nccs1)C(c1ccccc1)N1Cc2ccccc2C1=O (stereo not drawn)
2 | 1.45 µM | 12.4 µM | COc1cc2ncnc(NCc3ccc(NC(=O)C(c4ccccc4)N4Cc5ccccc5C4=O)cc3)c2cc1OCCCN1CCOCC1 (stereo not drawn)
